Experimental findings from ChEMBL document CHEMBL1201862, “PubChem BioAssay data set” (2004) are described below.

Experiment in all cases: inhibition of tumour cell growth, NCI panel, 48 h
The subject of experiment [1] is TK-10.
Experiment [2] concerns 786-0.
The subject of experiment [3] is SN12C.
The subject of experiment [4] is NCI-H23.
In experiment [5] the test system is HCT-15.
Experiment [6] has as its system HOP-92.
The test system of experiment [7] is MOLT-4.
Experiment [8] deals with LOX IMVI.
The test system of experiment [9] is HL-60.
For experiment [10], the system named is MDA-MB-435.
Experiment [11] relates to SW-620.
Experiment [12] has as its system NCI-H226.
For experiment [13], the system named is SR.
Experiment [14] concerns EKVX.
The subject of experiment [15] is A549.
Experiment [16] relates to NCI-H522.
Experiment [17] has as its system SK-MEL-2.
Experiment [18] concerns SNB-19.
For experiment [19], the system named is SF-295.
Experiment [20] relates to SK-OV-3.

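Method: 48-hour compound exposure of cells in 96-well plates, five concentrations, linear interpolation of endpoints. Here, GI50 denotes the concentration required for 50% inhibition of growth.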 Calls of active or inactive are those of the source. Cut-off read from the data, not from the text of the source: active = GI50 up to about 1.1 µM and inactive = higher. Where only a bound is given, the exact number is not on record here.

Take `CC1(C)SC2C(NC(=O)Cc3ccccc3)C(=O)N2C1C(=O)O` (stereo not given): the GI50 in [1] is > 100 µM (inactive); in [2] it was > 100 µM (inactive); in experiment [3] it was > 100 µM (inactive); in experiment [4] it was > 100 µM (inactive); in [5] it was over 100 µM; in experiment [6] it was > 100 µM (inactive). For the same molecule, the GI50 in [7] was > 100 µM (inactive); in [8], > 100 µM (inactive); in experiment [9] it was > 100 µM (inactive); in experiment [10], > 100 µM (inactive); in experiment [11] it was > 100 µM (inactive); in [12], 34 µM (inactive). Besides, the GI50 in [13], in experiment [14], in experiment [15], in [16], in experiment [17] and in experiment [18] was > 100 µM (inactive) in each case. In addition, the GI50 in [19] and in experiment [20] was > 100 µM (inactive) throughout.
As for `CC1(C)Cc2nc3c(cc2C(=O)C1/C=N/C(C#N)=C(\N)C#N)C(=O)C(/C=N/C(C#N)=C(\N)C#N)C(C)(C)C3` (stereo not given), the GI50 in experiment [1] was 4.8 µM (inactive); in [2], 1.84 µM (inactive); in experiment [3], 2.06 µM (inactive); in experiment [4], 2.71 µM (inactive); in experiment [5], 2.36 µM; in [6], 1.7 µM (inactive). In addition, the GI50 in [7] was 2.37 µM (inactive); in experiment [8], 2.09 µM (inactive); in experiment [9], 2.04 µM (inactive); in experiment [10] it was 2.08 µM (inactive); in experiment [11], 2.57 µM (inactive); in [12], 2.84 µM (inactive). The GI50 is 3.08 µM (inactive) in experiment [13]; 2.03 µM (inactive) in [14]; 2.6 µM (inactive) in experiment [15]; 0.705 µM (active) in [16]; 2.2 µM (inactive) in experiment [17]; 4.68 µM (inactive) in experiment [18]. In addition, the GI50 in experiment [19] is 2.54 µM (inactive); in experiment [20] it was 3.02 µM (inactive).
Take `COc1cccc(C2ON=C(c3ccccc3)N2C23CC4CC(CC(C4)C2)C3)c1` (stereo not given): the GI50 in [1] is > 10 µM (inactive); in experiment [2], > 10 µM (inactive); in experiment [3] it was > 10 µM (inactive); in experiment [4] it was > 10 µM (inactive); in [5] it was over 10 µM; in [6] it was > 10 µM (inactive). The GI50 in experiment [7] was 5.5 µM (inactive); in experiment [8], > 10 µM (inactive); in experiment [9], 5.09 µM (inactive); in [10] it was > 10 µM (inactive); in [11], > 10 µM (inactive); in experiment [12], 4.63 µM (inactive). The GI50 in experiment [13] was 2.09 µM (inactive); in experiment [14], > 10 µM (inactive); in experiment [15] it was > 10 µM (inactive); in [16], > 10 µM (inactive); in experiment [17], > 10 µM (inactive); in experiment [18], > 10 µM (inactive). Further, the GI50 in experiment [19] and in experiment [20] was > 10 µM (inactive) in each case.
With `Cc1cccc(C)c1NC(=O)/C(Cl)=C(/Cl)C(=O)O`, the GI50 in [1] is 14.7 µM (inactive); in experiment [2], 17.1 µM (inactive); in experiment [3] it was 18.7 µM (inactive); in experiment [4], 19.1 µM (inactive); in experiment [5] it was 16.2 µM; in [6], 15.5 µM (inactive). In addition, the GI50 in experiment [7] is 3.99 µM (inactive); in experiment [8], 18.1 µM (inactive); in [9] it was 2.63 µM (inactive); in experiment [10], 21.9 µM (inactive); in experiment [11] it was 7.74 µM (inactive); in [12], 16.4 µM (inactive). The GI50 is 8.41 µM (inactive) in experiment [13]; 19.5 µM (inactive) in experiment [14]; 20.7 µM (inactive) in experiment [15]; 4.33 µM (inactive) in experiment [16]; 16.7 µM (inactive) in experiment [17]; 24.5 µM (inactive) in experiment [18]. Further, the GI50 in experiment [19] is 29.2 µM (inactive); in experiment [20], 21.8 µM (inactive).
For `O=C1CSC(c2ccccc2)N1c1nc2cc3sc(N4C(=O)CSC4c4ccccc4)nc3cc2s1` (stereo not given), the GI50 in experiment [1] is 53.2 µM (inactive); in experiment [2] it was > 100 µM (inactive); in [3] it was 32.4 µM (inactive); in experiment [4], 15 µM (inactive); in experiment [5], 10.2 µM; in [6] it was > 100 µM (inactive). For the same molecule, the GI50 in experiment [7] is 5.86 µM (inactive); in [8], 25.4 µM (inactive); in experiment [9], > 63.7 µM (inactive); in experiment [10], 55.6 µM (inactive); in experiment [11], 9.95 µM (inactive); in experiment [12], 15.8 µM (inactive). In addition, the GI50 is 16.5 µM (inactive) in experiment [13]; 22.1 µM (inactive) in experiment [14]; 8.17 µM (inactive) in experiment [15]; 6.87 µM (inactive) in [16]; 63.7 µM (inactive) in experiment [17]; 78.3 µM (inactive) in experiment [18]. Besides, the GI50 in [19] and in experiment [20] was > 100 µM (inactive) each time.
Regarding `Cc1cc(C)c2c(=O)n(CC(O)CN3CCN(c4ncccn4)CC3)sc2n1` (stereo not given), the GI50 in [1] is 18.2 µM (inactive); in experiment [2], 14.5 µM (inactive); in experiment [3], 17.8 µM (inactive); in experiment [4] it was 17.7 µM (inactive); in [5] it was 18.8 µM; in [6] it was 29 µM (inactive). Besides, the GI50 in experiment [7] was 4 µM (inactive); in [8], 17.1 µM (inactive); in experiment [9], 16.6 µM (inactive); in experiment [10], 16.6 µM (inactive); in [11], 19.5 µM (inactive); in experiment [12] it was 96.8 µM (inactive). The GI50 in experiment [13] was 4.79 µM (inactive); in [14] it was 16 µM (inactive); in experiment [15], 17.5 µM (inactive); in experiment [16], 13 µM (inactive); in [17], 18.7 µM (inactive); in experiment [18], 64.3 µM (inactive). In addition, the values for the GI50 in [19] and in experiment [20] were > 100 µM (inactive) and 18.7 µM (inactive), respectively.
For the molecule `COc1ccc(C(Nc2ncccn2)c2cc3c(cc2O)OCO3)cc1` (stereo not given), the GI50 was 18.6 µM (inactive) in experiment [1]; 18 µM (inactive) in [2]; 17.4 µM (inactive) in [3]; 12.7 µM (inactive) in [4]; 18.8 µM in [5]; 37.2 µM (inactive) in experiment [6]. Besides, the GI50 in experiment [7] was 26.3 µM (inactive); in [8] it was 16.9 µM (inactive); in [9], 16.4 µM (inactive); in [10] it was 19.9 µM (inactive); in experiment [11], 9.42 µM (inactive); in experiment [12], 21.7 µM (inactive). Moreover, the GI50 in experiment [13] is 7.14 µM (inactive); in [14], 22.9 µM (inactive); in experiment [15] it was 32.2 µM (inactive); in [16] it was 16.7 µM (inactive); in experiment [17] it was 20.7 µM (inactive); in experiment [18] it was 17.3 µM (inactive). In addition, the GI50 in experiment [19] is 65.8 µM (inactive); in [20], 22.1 µM (inactive).
With `O=C(O)C1CSC2(CCCN(Cc3ccccc3)C2)N1` (stereo not given), the GI50 in [1] is > 100 µM (inactive); in [2], > 100 µM (inactive); in experiment [3], > 100 µM (inactive); in [4], > 100 µM (inactive); in [5], over 100 µM; in experiment [6], > 100 µM (inactive). For the same molecule, the GI50 in [7] is > 20.7 µM (inactive); in experiment [8], > 100 µM (inactive); in experiment [9], > 100 µM (inactive); in experiment [10] it was > 76.7 µM (inactive); in experiment [11] it was > 100 µM (inactive); in experiment [12] it was > 100 µM (inactive). For the same molecule, the GI50 in [13] is 4.81 µM (inactive); in experiment [14], > 100 µM (inactive); in experiment [15], > 100 µM (inactive); in [16] it was > 100 µM (inactive); in experiment [17] it was > 100 µM (inactive); in [18] it was > 100 µM (inactive). In addition, the GI50 in experiment [19] and in [20] was > 100 µM (inactive) in each case.
Consider `N=C(N)N/N=C/c1c(-c2ccc(Cl)cc2)nc2n1CCS2`, for which the GI50 in experiment [1] is 15.7 µM (inactive); in experiment [2], 4.31 µM (inactive); in experiment [3] it was 14.3 µM (inactive); in experiment [4] it was > 10 µM (inactive); in experiment [5] it was 14.3 µM; in [6], 10.7 µM (inactive). The GI50 is 2.68 µM (inactive) in experiment [7]; 4.49 µM (inactive) in experiment [8]; 31.1 µM (inactive) in [9]; 11.9 µM (inactive) in experiment [10]; 5.89 µM (inactive) in experiment [11]; 20.1 µM (inactive) in experiment [12]. Also, the GI50 is 7.16 µM (inactive) in experiment [13]; 16.6 µM (inactive) in experiment [14]; 10 µM (inactive) in [15]; 12.8 µM (inactive) in [16]; 10.8 µM (inactive) in experiment [17]; 15.6 µM (inactive) in [18]. Further, the GI50 in [19] was 3.53 µM (inactive); in [20] it was 13.9 µM (inactive).
Regarding `COc1cccc(-c2cc(O)c3cc(Cl)cnc3n2)c1`, the GI50 in [1] is 12.9 µM (inactive); in experiment [2], 0.102 µM (active); in experiment [3], 0.143 µM (active); in experiment [4], 0.254 µM (active); in experiment [5] it was 0.114 µM; in [6], 0.469 µM (active). Further, the GI50 is 0.0991 µM (active) in experiment [7]; 0.0687 µM (active) in experiment [8]; 0.0211 µM (active) in experiment [9]; 0.0155 µM (active) in experiment [10]; 0.0488 µM (active) in experiment [11]; 0.08 µM (active) in [12]. In addition, the GI50 in [13] was 0.0292 µM (active); in experiment [14], > 16.6 µM (inactive); in [15], 0.162 µM (active); in experiment [16], 0.0577 µM (active); in experiment [17] it was 0.757 µM (active); in [18], 0.122 µM (active). The values for the GI50 in [19] and in experiment [20] were 0.0687 µM (active) and 0.152 µM (active), respectively.
